# Measurements reported in patent US10682420B2, “Breast cancer therapy based on hormone receptor status with nanoparticles comprising taxane” (Abraxis BioScience, LLC, priority 2006, dated 2020).
# How the values were obtained:
# metastatic breast cancer = details: in vivo
# Text: Patients were HER-2/neu negative with a life expectancy of greater than 3 months. Patients had no prior chemotherapy for metastatic disease, no prior capecitabine therapy, and no prior fluoropyrimidine therapy and paclitaxel chemotherapy given in an adjuvant setting.
# The primary endpoint was objective response rate and safety/toxicity, with evaluation performed after every 2 cycles. A secondary endpoint was time to progression.
# cells [1] = assay: In vitro cellular cytotoxicity assay; assay type: cell-based; details: Abraxane 1 to 24 nM
# Experimental: Cells were treated with Abraxane® in a range of concentrations (1 to 24 nM).
# [2] = system: Luciferase-expressing MDA-MB-231 human breast cancer xenografts; assay: Abraxane and Avastin on growth of luciferase-expressing MDA-MB-231 xenografts; assay type: in vivo, female nude (nu/nu) mice
# Experimental: Abraxane®, either alone or in combination, was administered at 10 mg/kg/day daily for 5 days in two cycles separated by 1 week. Some groups were administered Abraxane® at 10 mg/kg daily for 5 days for only one cycle. […] Mice were monitored for tumor growth and drug toxicity. Mice were sacrificed when the mean tumor volume in the saline-treated control group reached 2000 mm^3.
# Tumor growth inhibition (TGI) was calculated by comparing mean tumor volume of test groups to that of the control group at the last measurement of the control group.
# cells [3] = assay: In vitro clonogenic assay; assay type: cell-based
# Experimental: Cells were treated with saline control, Abraxane® alone, VEGF-A alone, Avastin® alone, Abraxane®+VEGF-A or Abraxane®+Avastin®.
# [4] = system: metastasis of luciferase-expressing MDA-MB-231 tumor cells to the lymph nodes and lungs; assay: Abraxane and Avastin on metastasis by luciferase activity; assay type: in vivo, female nude (nu/nu) mice
# Experimental: Abraxane®, either alone or in combination, was administered at 10 mg/kg/day daily for 5 days in two cycles separated by 1 week. Some groups were administered Abraxane® at 10 mg/kg daily for 5 days for only one cycle. […] Mice were sacrificed when the mean tumor volume in the saline-treated control group reached 2000 mm^3. Axillary lymph nodes and both lobes of the lungs were removed from each mouse and cellular extracts were prepared. The presence of MDA-MB-231 cells in these tissues was evaluated by analysis of luciferase activity and was an indicator of metastasis from the primary tumor. Luciferase activity was measured in extracts from 10 lymph nodes and both lobes of the lungs on the day of sacrifice (day 65 after tumor implantation). A value greater than 500 light units per 20 μl lysate was rated as positive for presence of MDA-MB-231 cells and for incidence of metastasis.
# As used herein, incidence refers to the presence of luciferase activity in tissue from each mouse.
# [5] = system: MDA-MB-435 human breast tumor xenografts; assay: HKP and Abraxane in MDA-MB-435 xenografts; assay type: in vivo, mice; details: nineteen weeks of treatment; HKP 250 ug i.v. weekly x16; Abraxane 10 mg/kg/day i.v. x5 days
# Text: The antiangiogenic activity of small synthetic pro-apoptotic peptides composed of two functional domains, one targeting the CD13 receptors (aminopeptidase N) on tumor microvessels and the other disrupting the mitochondrial membrane following internalization have previously been reported. See Nat Med. 1999 September; 5(9): 1032-8.
# Methods: MDA-MB-435 human tumor xenografts were established at an average tumor volume of 100 mm^3, mice were randomized into groups of 12-13 animals and treated with HKP, Abraxane®, or HKP and Abraxane®. HKP was delivered i.v. (250 ug), once a week, for 16 weeks. Abraxane® was administered i.v., daily for 5 days at 10 mg/kg/day only for the first week of treatment. The Abraxane® dose used was substantially below its MTD (30 mg/kg/day, qd×5) to prevent the tumor from complete regression so effect of HKP could be noted.
# [6] = mouse, in vivo
# Text: Methods: Toxicity of Abraxane® and Taxotere® was compared in a dose-ranging study in nude mice given the drugs on a q4d×3 schedule.
molecule,measurement,setting,value
CCCCCOC(=O)Nc1nc(=O)n([C@@H]2O[C@H](C)[C@@H](O)[C@H]2O)cc1F [capecitabine],main toxicity related to the agent within the combination,metastatic breast cancer,hand foot syndrome
Avastin®: anti-VEGF antibody,effect of addition on in vitro cytotoxicity of Abraxane,cells [1],increased the in vitro cytotoxicity of Abraxane®
same,% TGI,[2]; Avastin Dose 4 mg/kg,12.56%
same,Mean Tumor Volume (mm^3),[2]; Avastin Dose 4 mg/kg twice a week for 6 weeks,2089 ± 251 mm^3
same,% Complete Regression,"[2]; Avastin Dose 4 mg/kg, day 65",0%
same,number of colonies formed,cells [3],slight reduction in the number of colonies formed
same,metastasis by luciferase activity in tissue extracts,[4],did not significantly inhibit metastasis
CNGRC-GG-d(KLAKLAK)2 [HKP],tumor volume,[5],"4,372 mm^3"
Taxotere®,maximum tolerated dose (MTD),[6],15 mg/kg
